Columns and labels:
CCKA = target: T1, CCKA (Cavia porcellus, UniProt Q63931); test: CCKA binding assay, guinea pig pancreas membranes ([125I]-CCK8(S)); settings: [125I]-CCK8(S) 200 pM, 0.375 μM PD134,308, 150 min at 21±3° C.; for Ki: pH 7.2, read-out: pKi (Guinea pig pancreas) (converted); for pKi (Guinea pig pancreas): pH 7.2
T1 construct: The pancreatata were removed from male guinea-pigs; from tissue; host or cells: pancreas of male Dunkin Hartley guinea pigs, membranes
T1 sequence (Q63931 1-430): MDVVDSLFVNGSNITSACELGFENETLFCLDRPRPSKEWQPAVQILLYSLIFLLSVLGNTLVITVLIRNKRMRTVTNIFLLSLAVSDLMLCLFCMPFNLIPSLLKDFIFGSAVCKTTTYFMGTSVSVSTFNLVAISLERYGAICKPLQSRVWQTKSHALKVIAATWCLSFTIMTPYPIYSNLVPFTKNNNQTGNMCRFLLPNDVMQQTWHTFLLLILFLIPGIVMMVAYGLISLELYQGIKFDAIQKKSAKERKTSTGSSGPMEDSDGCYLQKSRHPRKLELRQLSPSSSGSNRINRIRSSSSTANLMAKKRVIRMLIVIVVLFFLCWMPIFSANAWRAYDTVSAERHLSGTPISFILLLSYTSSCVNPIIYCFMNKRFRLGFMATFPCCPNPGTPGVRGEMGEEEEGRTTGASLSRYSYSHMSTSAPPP
Protocol: The compounds of the examples were also tested in a CCKA binding assay as follows:
The pancreatata were removed from male guinea-pigs (200-300 g; Dunkin Hartley) and placed in ice-cold HEPES buffer (pH 7.2@21±3° C.). The pancreatata were homogenised in 40 ml ice-cold HEPES buffer using a polytron (Brinkmann, PT10, setting 10) 4×1 second. The homogenate was centrifuged at 39,800 g for 15 min at 4° C. The supernatant was discarded and the pellet re-suspended using a Teflon-in-glass homogeniser in 20 volumes of fresh buffer and re-centrifuged as above. The final pellet was re-suspended using a Teflon-in-glass homogeniser to a tissue concentration of 1 mg.ml^-1 (original wet weight), and filtered through 500 μm pore-size Nytex mesh.
The membranes (400 μl; containing 0.375 μM PD134,308) were incubated for 150 minutes at 21±3° C. in a final volume of 0.5 ml with HEPES buffer containing [^125 I]-CCK8 (S) (50 μl; 200 pM) and competing compound. Total and non-specific binding of [^125 I]-CCK8 (S) were defined using 50 μl of buffer and 50 μl of 100 nM L-364,718 respectively. The assay was terminated by rapid filtration through pre-soaked Whatman GF/B filters using a Brandell Cell Harvester. The filters were washed (3×3 ml) with ice-cold 50 mM Tris HCl (pH 7.4 at 4° C.) and bound radioactivity was determined by counting (1 min) in a gamma counter.

CCKB receptor = target: T2, CCKB receptor (Mus musculus, UniProt P56481); test: radioligand binding assay at the CCKB receptor in mouse cortical membranes ([125I]-CCK8S); settings: [125I]-CCK8S 200 pM, 150 min at 21±3° C.; for Ki: pH 7.2, read-out: pKi (Mouse cortex) (converted); for pKi (Mouse cortex): pH 7.2
T2 construct: The cortex was dissected, weighed and homogenised in 40 ml ice-cold buffer; tissue Charles River (animals); host or cells: cerebral cortex of male CD1 mice, membranes
T2 sequence (P56481 1-453): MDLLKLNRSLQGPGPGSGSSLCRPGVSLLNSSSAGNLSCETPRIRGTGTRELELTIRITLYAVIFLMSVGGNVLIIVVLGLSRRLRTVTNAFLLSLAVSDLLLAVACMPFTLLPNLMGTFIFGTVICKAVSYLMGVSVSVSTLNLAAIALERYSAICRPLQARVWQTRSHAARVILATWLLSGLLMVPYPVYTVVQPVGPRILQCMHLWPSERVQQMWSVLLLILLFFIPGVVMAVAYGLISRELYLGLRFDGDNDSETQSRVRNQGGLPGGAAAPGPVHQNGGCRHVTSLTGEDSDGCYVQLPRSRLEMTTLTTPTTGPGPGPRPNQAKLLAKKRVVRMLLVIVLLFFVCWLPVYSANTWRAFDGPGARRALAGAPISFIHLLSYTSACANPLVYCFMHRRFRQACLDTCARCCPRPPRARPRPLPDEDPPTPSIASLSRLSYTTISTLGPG
Protocol: The compounds of the examples were tested for binding at the CCKB receptor in mouse cortical membranes by means of a radioligand binding assay. The procedure was as follows:
The whole brains from male mice (CD1 22-25 g; Charles River) were removed and placed in ice-cold buffer (pH7.2@21±3° C.) of the following composition (mM); 10 HEPES, 130 NaCl, 4.7 KCl, 5 MgCl2, 1 EDTA and containing 0.25 g.1^-1 bacitracin. The cortex was dissected, weighed and homogenised in 40 ml ice-cold buffer using a Teflon-in-glass homogeniser. The homogenate was centrifuged at 39,800 g for 20 min at 4° C., the supernatant discarded and the pellet resuspended by homogenisation in fresh buffer. The homogenate was recentrifuged (39,800 g; 20 min @4° C.) and the final pellet was resuspended in HEPES buffer to give a tissue concentration of 2 mg.ml^-1 (original wet weight).
The membranes (400 μl) were incubated for 150 min at 21±3° C. in a final volume of 0.5 ml with HEPES buffer containing [^125 I]-CCK8S (0.05 ml; 200 pM NEN 2200 Ci.mmol^-1) and competing compound. Total and non-specific binding of [^125 I]-CCK8S were defined using 0.05 ml of buffer and 0.05 ml of […] L-365,260, respectively. The assay was terminated by rapid filtration through pre-soaked Whatman GF/B filters using a Brandell Cell harvester. The filters were washed (3×3 ml) with ice-cold 50 mM Tris-HCl (pH7.4@4° C.) and bound radioactivity determined by counting (1 min.) in a gamma-counter.

| Structure (SMILES) | Ki (CCKA) | Ki (CCKB receptor) | pKi (Guinea pig pancreas) (CCKA) | pKi (Mouse cortex) (CCKB receptor) |
| --- | --- | --- | --- | --- |
| CC(=O)N1[C@H](C(=O)O)CC(=O)c2ccccc2N(Cc2ccccc2)C(=O)[C@@H]1CC12CC3CC(CC(C3)C1)C2 [Example 12, (3S,5S)-4-acetyl-3-(1-adamantyl)methyl-1-benzyl-2,7-dioxo-2,3,4,5,6,7-hexahydro-1H-1,4-benzodiazonine-5-carboxylate] | 10 µM | 10 µM |  |  |
| COc1cccc(CN2C(=O)[C@@H](CC34CC5CC(CC(C5)C3)C4)N(C(C)=O)[C@H](C(=O)O)CC(=O)c3ccccc32)c1 [Example 13, (3R,5S)-4-acetyl-3-[(1-adamantyl)methyl]-1-(3-methoxy)benzyl-2,7-dioxo-2,3,4,5,6,7-hexahydro-1H-1,4-benzodiazonine-5-carboxylate] | 3.16 µM | 2.51 µM |  |  |
| COc1ccc(CN2C(=O)[C@@H](CC34CC5CC(CC(C5)C3)C4)N(C(C)=O)[C@H](C(=O)O)CC(=O)c3ccccc32)cc1 [Example 14, (3R,5S)-4-acetyl-3-[(1-adamantyl)methyl]-1-(4-methoxy)benzyl-2,7-dioxo-2,3,4,5,6,7-hexahydro-1H-1,4-benzodiazonine-5-carboxylate] | 3.16 µM | 2.51 µM |  |  |
| CC(=O)N1[C@H](CC23CC4CC(CC(C4)C2)C3)C(=O)N(Cc2cccc(Cl)c2)c2ccccc2C(=O)C[C@H]1C(=O)O [Example 15] | 1.58 µM | 1.26 µM |  |  |
| CC(=O)N1[C@H](CC23CC4CC(CC(C4)C2)C3)C(=O)N(Cc2ccc(Cl)cc2)c2ccccc2C(=O)C[C@H]1C(=O)O [Example 16, (3R,5S)-4-acetyl-3-[(1-adamantyl)methyl]-1-(4-chloro)benzyl-2,7-dioxo-2,3,4,5,6,7-hexahydro-1H-1,4-benzodiazonine-5-carboxylate] | 2 µM | 1.58 µM |  |  |
| CC(=O)N1[C@H](CC23CC4CC(CC(C4)C2)C3)C(=O)N(Cc2cccc(N)c2)c2ccccc2C(=O)C[C@H]1C(=O)O [Example 17, (3R,5S)-4-acetyl-3-[(1-adamantyl)methyl]-1-(3-amino)benzyl-2,7-dioxo-2,3,4,5,6,7-hexahydro-1H-1,4-benzodiazonine-5-carboxylate] | 6.31 µM | 1.26 µM |  |  |
| COC(=O)[C@@H]1CC(=O)c2ccccc2N(Cc2ccccc2)C(=O)[C@@H](CC23CC4CC(CC(C4)C2)C3)N1C(C)=O [Example 18, (3R,5S)-methyl 4-acetyl-3-[(1-adamantyl)methyl]-1-benzyl-2,7-dioxo-2,3,4,5,6,7-hexahydro-1H-1,4-benzodiazonine-5-carboxylate] |  |  | 5.4 | 5.5 |
| CC(=O)N1[C@H](CC(C)(C)C)C(=O)N(Cc2ccccc2)c2ccccc2C(=O)C[C@H]1C(=O)O [Example 19, (3R,5S)-4-acetyl-1-benzyl-3-(2,2-dimethylpropyl)-2,7-dioxo-2,3,4,5,6,7-hexahydro-1H-1,4-benzodiazonine-5-carboxylate] | 15.8 µM | 7.94 µM |  |  |
| O=C1C[C@@H](C(=O)O)N(C(=O)OCc2ccccc2)[C@H](CC23CC4CC(CC(C4)C2)C3)C(=O)N(Cc2ccccc2)c2ccccc21 [Example 20, (3R,5S)-3-(1-adamantyl)methyl-1-benzyl-4-benzyloxycarbonyl-2,7dioxo-2,3,4,5,6,7-hexahydro-1H-1,4-benzodiazonine-5-carboxylate] | 3.98 µM | 3.16 µM |  |  |
| CC(=O)N1[C@H](CC23CC4CC(CC(C4)C2)C3)C(=O)N(C)c2ccccc2C(=O)C[C@H]1C(=O)O [Example 21, (3R,5S)-4-acetyl-3-(1-adamantyl)methyl-1-methyl-2,7-dioxo-2;3,4,5,6,7-hexahydro-1H-1,4-benzodiazonine-5-carboxylate] | 6.31 µM | 7.94 µM |  |  |
| CC(=O)N1[C@H](CC23CC4CC(CC(C4)C2)C3)C(=O)N(Cc2ccccc2)c2ccccc2C(=O)C[C@H]1C(=O)NCC(=O)O [Example 22, (3R,5S)-4-acetyl-3-(1-adamantyl)methyl-1-benzyl-5-carboxymethylaminocarbonyl-2,7-dioxo-2,3,4,5,6,7-hexahydro-1H-1,4-benzodiazonine] | 10 µM | 0.2 µM |  |  |
| CC(=O)N1[C@H](CC23CC4CC(CC(C4)C2)C3)C(=O)N(Cc2ccccc2)c2ccccc2C(=O)C[C@H]1C(=O)NCCC(=O)O [Example 23, (3R,5S)-4-acetyl-3-(1-adamantyl)methyl-1-benzyl-5-(2-carboxy)ethylaminocarbonyl-2,7-dioxo-2,3,4,5,6,7-hexahydro-1H-1,4-benzodiazonine] | 10 µM | 1 µM |  |  |
| CC(=O)N1[C@H](CC23CC4CC(CC(C4)C2)C3)C(=O)N(Cc2ccccc2)c2ccccc2C(=O)C[C@H]1C(=O)N[C@@H](C)C(=O)O [Example 24, (3R,5S)-4-acetyl-3-(1-adamantyl)methyl-1-benzyl-5-[(1S)-carboxy]ethylaminocarbonyl-2,7-dioxo-2,3,4,5,6,7-hexahydro-1H-1,4-benzodiazonine] |  |  | 5.0 | 6.9 |
| CC(=O)N1[C@H](CC23CC4CC(CC(C4)C2)C3)C(=O)N(Cc2ccccc2)c2ccccc2C(=O)C[C@H]1C(=O)N[C@H](C)C(=O)O [Example 25, (3R,5S)-4-acetyl-3-(1-adamantyl)methyl-1-benzyl-5-[(1R)-carboxy]ethylaminocarbonyl-2,7-dioxo-2,3,4,5,6,7-hexahydro-1H-1,4-benzodiazonine] | 6.31 µM | 0.398 µM |  |  |
| CC(=O)N1[C@H](CC23CC4CC(CC(C4)C2)C3)C(=O)N(Cc2ccccc2)c2ccccc2C(=O)C[C@H]1C(=O)NC(C)(C)C(=O)O [Example 26, (3R,5S)-4-acetyl-3-(1-adamantyl)methyl-1-benzyl-5-(1-carboxy-1-methyl)ethylaminocarbonyl-2,7-dioxo-2,3,4,5,6,7-hexahydro-1H-1,4-benzodiazonine] | 6.31 µM | 1 µM |  |  |
| COc1ccc(CN2C(=O)[C@@H](CC34CC5CC(CC(C5)C3)C4)N(C(C)=O)[C@H](C(=O)Nc3cc(C(=O)O)cc(C(=O)O)c3)CC(=O)c3ccccc32)cc1 [Example 31] | 6.31 µM | 1.58 µM |  |  |

Source: US6057311A, “Benzodiazonine derivatives binding to cholecystokinin or gastrin receptors” (James Black Foundation Limited, priority 1996, dated 2000)
